The values below come from patent EP3895702B1, “DERIVATIVE OF VALPROIC ACID AND DICHLOROACETATE USED FOR THE TREATMENT OF CANCER” (Lietuvos sveikatos mokslu universitetas, priority 2020, dated 2021).

Data set [1] relates to glioblastoma U87 MG tumors. The data set can be described thus: Invasion of glioblastoma tumor graft into chicken embryo chorioallantoic membrane (CAM) mesenchyme. Type of data set: in vivo. Particulars: control 90.9%. As to the method: Synergistic effect of VPA and DCA on glioblastoma tumor (GB) graft on chicken embryo chorioallantoic membrane (CAM). […] Invasion into the CAM mesenchyme was detected in 50% of cases with 10 mM NaDCA treatment of GB (A-b and B). […] The incidence of invasion into the CAM mesenchyme was 9.1% in the group treated with the combination of 4 mM VPA and 5 mM DCA (A-c and B).
A - morphological changes of the chorioallantoic membrane in the groups studied: a - tumor formed from glioblastoma U87 MG cells; GB injured the integrity of the chorionic epithelium (ChE) (indicated by arrows) and invaded the CAM mesenchyme; b - GB treated with 10 mM NaDCA; no invasion of the CAM mesenchyme was detected, ChE injury already started (location marked with an arrow); c - GB treated with a combination of 4 mM VPA and 5 mM DCA; GB formed on the CAM surface, ChE integrity damaged (location marked with an arrow), CAM thinned (scale - 200 µm). […] C - fluorescence biomicroscopy of angiogenesis on the 5th day after tumor transplantation on CAM: a - untreated GB tumors, b - GB-4 mM VPA-5 mM DCA group; VPA-DCA treated tumor fluorescence is weaker compared to the control group tumor; a and b-a short arrow indicates the blood vessels attracted by the tumor, long arrow indicates a tumor (scale - 1 mm).

For data set [2] the following is noted: aqueous solution; cited from earlier work.

Turning to Magnesium dichloroacetate [MgDCA], the Invasion rate in data set [1] (5 mM MgDCA, n = 7) amounted to 14.3%.
For `CCCC(CCC)C(=O)O` [valproic acid, 2-propyl-pentanoic acid], the “ionization equilibrium constant Kr” value in data set [2] is 2.2·10^-5.
As to `O=C([O-])C(Cl)Cl.[Na+]` [NaDCA, Sodium dichloroacetate], the “Invasion into the CAM mesenchyme (cases)” value in data set [1] (10 mM NaDCA, n = 14) is listed as 50%.
